Data on one compound can be found in patent US8426369B2, “Prevention and treatment of colon cancer” (Rutgers, The State University of New Jersey, priority 2006, dated 2013).

Experiment [1] has as its system carcinogen-induced preneoplastic lesions. The note with it: MMOC model; cited from earlier work.
The test system of a further experiment is ATF2. Nature of the experiment: Western blot of cytokine-induced ATF2 phosphorylation in HT-29 cells. It is filed as cell-based, human. The note with it: cytokine-treated HT-29. Here is the method:
(§1) The cell culture conditions and the reagents used in this example were described in Example 32. Whole cell extracts were collected after the various treatments and analyzed by western blotting. The protein samples were separated on 4-15% SDS-PAGE gels (Biorad, Hercules, Calif.) followed by transfer to a polyvinylidene fluoride membrane. The membranes were blocked with 5% milk in Tris buffer for 1 h and then incubated with the appropriate primary antibody solutions overnight at 4° C. The membranes were washed with Tris buffer, and incubated with horseradish peroxidase conjugated secondary antibody solutions for 1 h at room temperature.
The protein bands were visualized using a chemiluminescence based kit from Amersham Biosciences (Buckinghamshire, UK). The primary antibodies against iNOS, COX-2, IκBα, cyclin D1, c-myc (Santa Cruz Bio-technology, Santa Cruz, Calif.), phospho-STAT3, phospho-Erk1/2, phospho-JNK1/2, phospho-p38, phospho-Akt, phospho-ATF2, phospho-Elk1, PARP (Cell Signaling Technology Inc., Beverly, Mass.) and actin (Sigma, St. Louis, Mo.) and secondary antibodies (Santa Cruz Biotechnology, Santa Cruz, Calif.) were used for probing the abundance of the target protein in the samples. […]

In experiment [2] the test system is azoxymethane-induced aberrant crypt foci (ACF). The experiment can be described thus: Azoxymethane-induced aberrant crypt foci (ACF) in rat colon, dietary pterostilbene. It is filed as in vivo, male F344 rats. Conditions: for inhibition at 40 ppm: Rattus norvegicus, feed or water, 40 ppm in diet, compared to control diet. As for the experimental part: Weanling male F344 rats were obtained from Charles River Breeding Laboratories (Kingston, N.Y.). All experimental diets were purchased from Research Diets (New Brunswick, N.J.) and stored at 4° C. All animals were randomly distributed by weight into control and experimental groups and housed in plastic cages with filter tops (three per cage) under controlled conditions of a 12-hr light and dark cycle, 50% humidity and 21° C. temperature. Animals had access to food and water at all times. Food cups were replenished with fresh diet two times weekly.
Beginning at 5 weeks of age, all rats were fed the modified American Institute of Nutrition-76A (AIN-76A) diet. At 7 weeks of age, the animals were given s.c. injections of azoxymethane (AOM) (CAS no. 25843-45-2, Ash Stevens, Detroit, Mich.) once weekly for 2 weeks at a dose rate of 15 mg/kg body weight. One day after the second AOM injection, groups of animals (n=9 per group) were maintained on AIN-76A diet alone and AIN-76A diet containing 40 ppm pterostilbene. […] See, e.g., U.S. Application Publication No. US 2006-0057231 A1.
On the average, the animal consumed about 0.6 mg pterostilbene per day. All rats were weighed once weekly until termination of the study at 8 weeks after the second AOM treatment were sacrificed by CO2 asphyxiation. After laparotomy, the entire stomach, small intestine, and large intestine were resected. The organs were opened longitudinally, and the contents were flushed with normal saline.
For the ACF analysis, the colons were fixed flat between two pieces of filter paper in 10% buffered formalin for a minimum of 24 hr. The colons were then cut into 2-cm segments, starting at the anus. They were stained with 0.2% methylene blue in Krebs-Ringer solution for 5-10 min, and were then placed mucosal side up on a microscope slide and observed through a light microscope. ACF were counted and recorded according to standard procedures that are being used routinely in the laboratory. […] The parameters used to assess the aberrant crypts were their occurrence and multiplicity. Crypt multiplicity was determined as the number of crypts in each focus. Multicrypts were categorized as containing up to four or more aberrant crypts/focus.
Total number of ACF/colon and multiple aberrant crypts/focus were counted and the data were analyzed by Student's t-test. The PCNA labeling index (PI) was calculated as the [(number of positive cells)/(total number of cells)]×100 for each field which is averaged to get the PI for each section. The significance of treatment between the groups was analyzed by Student's t-Test.

The next experiment has as its system c-myc. Nature of the experiment: Western blot of c-myc in HT-29 cells. The format is cell-based, human. The note with it: 9 h or 18 h, especially at 9 h. Here is the method:
(§2) The cells were incubated with different concentrations of pterostilbene for 1, 2 and 3 days, and cell proliferation was estimated by measuring [^3H]thymidine incorporated into DNA. […] In order to evaluate whether pterostilbene potentiates cell cycle arrest or apoptosis in HT-29 cells, the effect of pterostilbene on the proteins regulating the cell cycle and/or apoptosis pathways was examined. Cells treated with pterostilbene for 9 h or 18 h were harvested and protein samples were analyzed by Western blotting (FIG. 8B).
as §1
(§3) The protein bands were visualized using a chemiluminescence based kit from Amersham Biosciences (Buckinghamshire, UK). […]
For orientation: Immunoblotting shows a protein as a band on a membrane.

A further experiment concerns COX-2 mRNA. The experiment can be described thus: Quantitative RT-PCR of cytokine-induced COX-2 mRNA in HT-29 cells. It is filed as cell-based, human. The note with it: 10 and 30 μM. Here is the method: (§4) The cell culture conditions and the reagents used in this example were described in Example 32. The gene-mediated expression of iNOS and COX-2 are reported to be regulated at both the transcriptional and translational levels. In order to understand the effect of pterostilbene on cytokine-induced expression of proinflammatory enzymes and cytokines, RNA samples after treatment of HT-29 cells with cytokines and/or pterostilbene were analyzed by quantitative RT-PCR for the induction of mRNA levels of iNOS, COX-2, IL-1β, IFN-γ and TNF-α genes.
(§5) To determine the changes of mRNA levels by pterostilbene and cytokines, quantitative RT-PCR analysis was utilized, as described previously (Lee et al., Mol Pharmacol 2006; 69(6):1840-1848). Briefly, the cells were incubated with compounds for indicated period and the cells were then lysed using Trizol to extract RNA. RNA was reverse transcribed into cDNA using a high capacity cDNA archive kit (Applied Biosystems, Foster City, Calif.). The cDNA was used for quantitative PCR which was run on the ABI Prism […] sequence Detection System. The primers for the iNOS, COX-2, IFN-γ, TNF-α, IL-1β and GAPDH were obtained from Applied Biosystems (Foster City, Calif.).

The test system of another experiment is p21. Nature of the experiment: Western blot of p21 in HT-29 cells. The note with it: HT-29, data not shown. It is filed as cell-based, human. Here is the method: as §2, §1, §3
Another experiment deals with TNF-α mRNA. The experiment can be described thus: Quantitative RT-PCR of cytokine-induced TNF-α mRNA in HT-29 cells. The format is cell-based, human. As for the experimental part: as §4, §5
The next experiment deals with IL-1β mRNA. Nature of the experiment: Quantitative RT-PCR of cytokine-induced IL-1β mRNA in HT-29 cells. The format is cell-based, human. The note with it: 10 and 30 μM. Here is the method:
as §4, §5

Another experiment concerns p-Akt. Nature of the experiment: Western blot of p-Akt in cytokine-treated HT-29 cells. It is filed as cell-based, human. Here is the method:
as §1
The protein bands were visualized using a chemiluminescence based kit from Amersham Biosciences (Buckinghamshire, UK). The primary antibodies against iNOS, COX-2, IκBα, cyclin D1, c-myc (Santa Cruz Bio-technology, Santa Cruz, Calif.), phospho-STAT3, phospho-Erk1/2, phospho-JNK1/2, phospho-p38, phospho-Akt, phospho-ATF2, phospho-Elk1, PARP (Cell Signaling Technology Inc., Beverly, Mass.) and actin (Sigma, St. Louis, Mo.) and secondary antibodies (Santa Cruz Biotechnology, Santa Cruz, Calif.) were used for probing the abundance of the target protein in the samples.

[3] abbreviates: 40 ppm in AIN-76A diet, 8 weeks after second AOM treatment, Mean ± S.D. (n = 9).

Where two headings read alike, the source gives them in different places.

In the case of `COc1cc(/C=C/c2ccc(O)cc2)cc(OC)c1` [pterostilbene, (E)-4-(3,5-dimethoxystyryl)phenol], the “preventing carcinogen-induced preneoplastic lesions” value in experiment [1] is on record as “as effective as resveratrol”. The “cytokine-induced activation (phosphorylation) of ATF2” value with ATF2 was “effective in inhibiting”. In addition, in experiment [2] (setting [3]), the “>4 ACF/colon” value came to 25.1 ± 5.6 and the ACF/colon is reported as 117 ± 12. Moreover, in experiment [2] (read-out: inhibition of multiple aberrant crypts/focus), the inhibition at 40 ppm turned out to be 29%. In experiment [2] (read-out: inhibition of total ACF/colon), the inhibition at 40 ppm turned out to be 57%. For the same compound, in the experiment on c-myc, the c-myc level result is on record as “effective in reducing”. Further, the “COX-2 mRNA induction by the cytokine mixture” value with COX-2 mRNA is recorded as “strongly inhibited”. In the experiment with p21, the “induction of p21” value was “no induction”. The “TNF-α mRNA induction by the cytokine mixture” value with TNF-α mRNA was “weak inhibitory effect”. Moreover, the “IL-1β mRNA induction by the cytokine mixture” value with IL-1β mRNA is listed as “strongly inhibited”. In addition, in the experiment with p-Akt, the “level of p-Akt” value is listed as “did not change”.
